We go through 15 compounds from patent publication US6989390B2, “Amonafide salts” (priority 2002, dated 2006).

Data set [1] is described as follows: Minimum amount of water/ethanol (1.5/4 v/v) required to dissolve the crude salt at boil (recrystallization). It counts as physicochemical. As to conditions: minimum water/ethanol (1.5/4 v/v) to dissolve crude product at boil; salt made by the method in column 2. From the text:
For comparative purposes, between and among organic salts prepared in this manner and for the purposes of subsequent Example 3, Table 3, crude reaction products were recrystalized from water/ethanol (1.5/4 v/v per gram of salt) using the minimum amount of solvent to effect dissolution at boil.
In the case of succinic acid, the organic acid was dispensed as a half-equivalent in order to generate mitonafide hemisuccinate. […] Crude product that was isolated from the hydrogenation reaction mixture was analyzed for purity by high pressure liquid chromatography (HPLC) according to the conditions described in Table 1 above. The crude product was recrystallized from water/ethanol (1.5/4 v/v) using the minimum amount of solvent required to dissolve the crude product at boil, which is shown in the last column of Table 3 for each salt. The recrystallized product was then analyzed for purity by HPLC.
The purities of the crude salts were assessed by HPLC according to the conditions described in Table 1 above. The crude salts were then recrystallized from the minimum amount of water/ethanol (1.5/4 v/v) using the minimum amount of solvent required to dissolve the crude product at boil, which is shown in the last column of Table 3 for each salt. The resulting purified salts were again assessed for purity.
The hydrochloride and methanesulfonic acid salts of amonafide were prepared according to U.S. Pat. No. 5,420,137. Exemplary procedures are as follows: 3 g of crude amonafide free base, obtained as described in the previous two paragraphs, above, were dissolved under reflux in 60 ml of virtually anhydrous ethanol. Subsequently 1 ml of 35% (1 equivalent, estimated) strength hydrochloric acid was added dropwise while shaking vigorously. After cooling, the resulting crystals were filtered off and washed with 10 ml of anhydrous ethanol. The methanesulfonic acid salt was obtained using the same procedure, but replacing hydrochloric acid with 0.8 ml of methanesulfonic acid. The purity was assessed by HPLC using the conditions described in Table 1. The isolated products were then recrystallized from water/ethanol (1.5/4 v/v) using the minimum amounts of solvent required to dissolve the crude product at boil, which are shown for each salt in Table 3. The resulting purified salts were again assessed for purity.
The hydrochloride salt of amonafide was obtained by the method of Zee-Chang et al., U.S. Pat. No. 4,614,820. Exemplary conditions are as follows: a mixture of the hydrochloride salt of N-(dimethylaminoethyl)-3-nitro-1,8-naphthalimide and 10% palladium-on-charcoal in water was hydrogenated at room temperature under 40 lbs/in^2 of hydrogen for one hour. […] To the mixture was added 3 ml of concentrated hydrochloric acid. It was then filtered and the filtrate was evaporated to dryness under reduced pressure. The residue was triturated with 30 ml of absolute ethanol and filtered. The resulting solid was then washed with ether and dried. The purity was assessed by HPLC using the conditions described in Table 1. The crude product was then recrystallized from water/ethanol (1.5/4 v/v) using the minimum amount of solvent (40 mL/g) required to dissolve the crude product at boil. The resulting purified salts were again assessed for purity.

The nature of data set [2]: Solubility assessment of amonafide salts (50, 100, 200 mg in 1 ml USP water or isotonic saline). It counts as physicochemical. As for the experimental part: A number of organic acid amonafide salts of the present invention were tested for their solubility in aqueous medium and compared with the solubility of the corresponding hydrochloride and methansolufonic acid salts. […] Solutions were allowed to equilibrate for 1 hour, their dissolution status noted, and then refrigerated for an additional hour (at 2° C.). Thereafter, the samples were returned to room temperature and examined for precipitate formation and allowed to equilibrate for another hour until a final inspection for dissolution status.

Where [3] appears, read: 50 mg salt in 1 ml 0.9% sodium chloride (saline), 0 hours.
Where [4] appears, read: 50 mg salt in 1 ml 0.9% sodium chloride (saline), 1 hours.
[5] abbreviates: 50 mg salt in 1 ml distilled water, 0 hours.
[6] abbreviates: 50 mg salt in 1 ml distilled water, 1 hours.
Setting [7] is: 100 mg salt in 1 ml 0.9% sodium chloride (saline), 0 hours.
The mark [8] stands for this setting: 100 mg salt in 1 ml 0.9% sodium chloride (saline), 1 hours.
Setting [9] is: 100 mg salt in 1 ml distilled water, 0 hours.
Where [10] appears, read: 100 mg salt in 1 ml distilled water, 1 hours.

Counter-ions that a name gives are not always drawn.

In the case of `CN(C)CCN1C(=O)c2cccc3cc(N)cc(c23)C1=O.O=C(O)CCC(=O)C(=O)O` [Amonafide 2-oxoglutarate], in data set [1], the “Solvent” value was found to be 30 mL/g.

Turning to `CN(C)CCN1C(=O)c2cccc3cc(N)cc(c23)C1=O.O=C(O)CCCCC(=O)O` [Amonafide Adipate], the “Solvent” value in data set [1] turned out to be 25 mL/g.

For `CN(C)CCN1C(=O)c2cccc3cc(N)cc(c23)C1=O.O=C(O)CC(O)(CC(=O)O)C(=O)O` [Amonafide Citrate], in data set [1], the “Solvent” value was found to be 25 mL/g.

`CN(C)CCN1C(=O)c2cccc3cc(N)cc(c23)C1=O` [Amonafide HCl, Amonafide Monohydrochloride, reference compound]: the “Solvent” value in data set [1] stood at 40 mL/g. Also, the “solubility in the test panel of Tables 3 and 4” value in data set [2] (monohydrochloride prepared by salt exchange, 99.2% pure) was “low solubility”.

On to `CN(C)CCN1C(=O)c2cccc3cc(N)cc(c23)C1=O.O=C(O)C(O)C(O)C(=O)O` [Amonafide L-tartrate], for which the “Solvent” value in data set [1] turned out to be 20 mL/g.

For the compound `CN(C)CCN1C(=O)c2cccc3cc(N)cc(c23)C1=O.O=C(O)CO` [Amonafide glycolate], the “Solvent” value in data set [1] came out at 12.5 mL/g.

In the case of `CN(C)CCN1C(=O)c2cccc3cc(N)cc(c23)C1=O.O=C(O)CC(=O)O` [Amonafide malonate, amonafide malonate], the “Solvent” value in data set [1] came to 20 mL/g.

For the compound `CN(C)CCN1C(=O)c2cccc3cc(N)cc(c23)C1=O.O=C(O)c1ccccc1O` [Amonafide salicylate], the “Solvent” value in data set [1] came out at 35 mL/g.

Take `CN(C)CCN1C(=O)c2cccc3cc(N)cc(c23)C1=O.CS(=O)(=O)O` [Amonafine methanesulfonate, reference compound]: in data set [1], the “Solvent” value is 25 mL/g.

For the compound Amonafide Aspartate, the “Solvent” value in data set [1] turned out to be 30 mL/g.

Turning to Amonafide pyruvate, in data set [1], the “Solvent” value amounted to 20 mL/g. Further, the “Dissolution Status” value in data set [2] (setting [3]), in data set [2] (setting [4]), in data set [2] (setting [5]), in data set [2] (setting [6]), in data set [2] (setting [7]) and in data set [2] (setting [8]) was “Soluble” each time. Besides, the “Dissolution Status” value in data set [2] (setting [9]) is “Soluble”; in data set [2] (setting [10]) it was “Soluble”; in data set [2] (200 mg salt in 1 ml 0.9% sodium chloride (saline), 0 hours), “Partially Soluble”; in data set [2] (200 mg salt in 1 ml 0.9% sodium chloride (saline), 1 hours), “Partially Soluble”; in data set [2] (200 mg salt in 1 ml distilled water, 0 hours), “Soluble”; in data set [2] (200 mg salt in 1 ml distilled water, 1 hours) it was “Soluble”. Also, the “solubility in distilled water and in saline at high concentration compared with the hydrochloride salt forms / organic salts” value in data set [2] (text summary of Table 4) is given as “more soluble”.

In the case of Amonafide succinate, the “Solvent” value in data set [1] is 20 mL/g. Moreover, the “Dissolution Status” value in data set [2] (setting [3]) is reported as “Insoluble”; in data set [2] (setting [4]), “Insoluble”; in data set [2] (setting [5]), “Soluble”; in data set [2] (setting [6]) it was “Soluble”; in data set [2] (setting [7]), “Insoluble”; in data set [2] (setting [8]), “Insoluble”. Also, the “Dissolution Status” value in data set [2] (setting [9]) and in data set [2] (setting [10]) was “Insoluble” throughout.

With amonafide fumarate, the “Solvent” value in data set [1] is 25 mL/g. Moreover, the “Dissolution Status” value in data set [2] (setting [3]), in data set [2] (setting [4]), in data set [2] (setting [5]) and in data set [2] (setting [6]) was “Insoluble” in each case.

Turning to “amonafide hemisuccinate [Amonafide hemi-succinate]”, the “Solvent” value in data set [1] came to 15 mL/g.

Take amonafide maleate: the “Solvent” value in data set [1] is 20 mL/g. For the same compound, the “Dissolution Status” value in data set [2] (setting [3]), in data set [2] (setting [4]), in data set [2] (setting [5]) and in data set [2] (setting [6]) was “Insoluble” in each case.
